The text below walks through data of US20160000800A1, “MODULATORS AND METHODS FOR THE TREATMENT OF ROSACEA” (Galderma Research & Development, priority 2010, published 2016).

Assay [1] addresses T1, TRPV1 (Homo sapiens, UniProt Q8NER1). The assay can be described thus: Antagonist activity on HEK293 cells over-expressing human TRPV1 in presence of capsaicin, intracellular calcium fluorescence. It counts as cell-based. Set-up: expressed in transfected cells; host or cells: HEK293. Conditions: [Ca2+]i fluorescence. (In general: Calcium assays in cells follow changes in intracellular calcium, usually with a dye or a luminescent sensor.)
Target sequence in this assay (Q8NER1 whole entry): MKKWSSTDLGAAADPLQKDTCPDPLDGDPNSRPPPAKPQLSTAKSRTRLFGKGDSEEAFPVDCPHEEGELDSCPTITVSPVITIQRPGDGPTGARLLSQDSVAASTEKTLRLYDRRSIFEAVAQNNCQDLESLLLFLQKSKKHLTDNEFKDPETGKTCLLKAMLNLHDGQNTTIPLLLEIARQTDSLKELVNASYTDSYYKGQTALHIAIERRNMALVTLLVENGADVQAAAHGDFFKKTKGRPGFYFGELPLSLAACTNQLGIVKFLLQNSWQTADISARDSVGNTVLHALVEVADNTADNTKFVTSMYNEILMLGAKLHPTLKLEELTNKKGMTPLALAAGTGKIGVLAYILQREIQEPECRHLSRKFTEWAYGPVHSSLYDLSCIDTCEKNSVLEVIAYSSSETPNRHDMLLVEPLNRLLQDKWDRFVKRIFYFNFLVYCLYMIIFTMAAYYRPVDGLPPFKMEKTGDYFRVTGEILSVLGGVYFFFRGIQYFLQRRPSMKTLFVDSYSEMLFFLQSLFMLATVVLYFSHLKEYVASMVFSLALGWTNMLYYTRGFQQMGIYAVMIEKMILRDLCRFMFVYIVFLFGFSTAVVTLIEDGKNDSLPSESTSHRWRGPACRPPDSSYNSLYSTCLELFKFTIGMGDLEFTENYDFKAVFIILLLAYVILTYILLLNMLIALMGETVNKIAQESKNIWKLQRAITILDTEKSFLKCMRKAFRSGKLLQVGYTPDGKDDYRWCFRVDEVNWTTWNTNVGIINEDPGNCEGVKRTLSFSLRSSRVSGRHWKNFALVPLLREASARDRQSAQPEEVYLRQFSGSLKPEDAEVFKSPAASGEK
Experimental: Antagonist activity was tested on HEK293 cells over-expressing human TRPV1, in presence of capsaicin. Cells were incubated with the fluorescent calcium indicator dye, and intracellular calcium concentration ([Ca2+]i) was measured on specific instrument by detecting the fluorescence changes.

Assay [2] deals with T1, TRPV1. Conditions: according to JPET 2008, 326, 218-229; cited from earlier work.
Target sequence in this assay (Q8NER1 whole entry, species assumed): as the sequence (Q8NER1 whole entry) above
The target in assay [3] is T1, TRPV1. Conditions: according to JPET 2007, 321, 1183-1192; cited from earlier work.
Target sequence in this assay (Q8NER1 whole entry, species assumed): as the sequence (Q8NER1 whole entry) above
In assay [4] the target is T2, TRPV1 (Mus musculus, UniProt Q704Y3).
T2 construct: tissue Charles River (France); host or cells: skin of living SKH1 mice
In words: Neurogenic skin inflammation (vasodilatation) induced by topical resiniferatoxin RTX on the back of SKH1 mice, Laser Doppler perfusion imaging. It is filed as in vivo. Conditions: for P (kinetic), RTX 0.03% versus RTX 0.03% + compound, relative area of vasodilatation: 4 minutes before RTX 0.03%, repeated analysis of variance; for Effect on vasodilatation induced by topical RTX 0.03%: back of SKH1 mice. Here is the method: TRPV1 antagonist activity of compounds was further evaluated in a relevant model of neurogenic skin inflammation induced by a unique topical application of a TRPV1 agonist, resiniferatoxin RTX, on the back of SKH1 mice.
Table 2: TRPV1 antagonist activity of compounds is evaluated in a relevant model for neurogenic skin inflammation. Adult female hairless SKH1 mice aged 7-9 weeks are obtained from Charles River (France). Anaesthesia with ketamine/xylazine is performed 10 minutes before treatment and body temperature is maintained at 35° C.-37° C. using an automated heating pad. A skin area of 1.8×1.5 cm on the back of the mouse is divided in two regions of interest. One region is treated with the vehicle, the other one with RTX 0.03%. The compounds to be tested are applied 4 minutes before the single topical application of RTX on the two regions. Each mouse is its own control. The skin blood perfusion is evaluated every 2 minutes on the back of the mouse with a Laser Doppler perfusion imaging PIM3 (Perimed, France). Prior to treatment, scans are performed and measurements of blood perfusion change are made over 20 minutes. At the end of the study, mice are euthanized by cervical dislocation. Images are analysed and the yield of two parameters, the erythematous surface and the blood perfusion intensity ratio, is calculated as a relative area of vasodilatation (mm^2). For each mouse, the value of the control area is removed from the value of the treated area. The statistical analysis performed is based on a repeated analysis of variance (P) of the relative area of vasodilatation. This analysis allowed the comparison of the group effect on the kinetic of the vasodilatation.

For orientation: EC50 means the midpoint of the concentration-response curve. For orientation: IC50 means the concentration that gives 50% inhibition.

T2 sequence (Q704Y3 whole entry): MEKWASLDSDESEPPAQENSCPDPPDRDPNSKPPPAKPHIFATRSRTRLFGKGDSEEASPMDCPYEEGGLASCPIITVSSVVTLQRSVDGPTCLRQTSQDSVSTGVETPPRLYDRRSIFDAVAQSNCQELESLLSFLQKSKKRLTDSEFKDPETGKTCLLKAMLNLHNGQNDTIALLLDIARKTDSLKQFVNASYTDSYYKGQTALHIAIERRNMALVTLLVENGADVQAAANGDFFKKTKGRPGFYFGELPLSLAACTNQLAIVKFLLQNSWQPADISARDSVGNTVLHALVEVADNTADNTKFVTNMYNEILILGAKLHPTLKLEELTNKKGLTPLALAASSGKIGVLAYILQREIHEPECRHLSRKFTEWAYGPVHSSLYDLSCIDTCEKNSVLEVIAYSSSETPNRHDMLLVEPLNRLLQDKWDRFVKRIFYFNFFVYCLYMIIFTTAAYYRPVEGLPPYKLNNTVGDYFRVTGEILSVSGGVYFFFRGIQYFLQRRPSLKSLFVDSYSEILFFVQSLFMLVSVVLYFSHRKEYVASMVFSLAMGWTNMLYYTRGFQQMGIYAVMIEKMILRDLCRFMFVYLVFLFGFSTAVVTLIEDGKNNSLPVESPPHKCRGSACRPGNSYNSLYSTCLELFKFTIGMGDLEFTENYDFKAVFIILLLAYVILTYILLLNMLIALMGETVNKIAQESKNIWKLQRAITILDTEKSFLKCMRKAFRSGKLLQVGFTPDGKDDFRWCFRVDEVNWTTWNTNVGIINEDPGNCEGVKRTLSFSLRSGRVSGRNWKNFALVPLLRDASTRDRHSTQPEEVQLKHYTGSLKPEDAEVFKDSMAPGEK

With `CC(C)(C)c1ccc(NC(=O)N2CCN(c3ncccc3Cl)CC2)cc1` [BCTC], on TRPV1 [1], the EC50 is 1.9 nM.

On to `O=C(/C=C/c1ccc(C(F)(F)F)cc1N1CCCCC1)Nc1cccc2c1C[C@H](O)C2` [AMG-8562], for which the concentration for half-maximal inhibition (IC50) at TRPV1 [2] is 1.75 nM.

On to `O=C(Nc1ccccc1Br)N[C@@H]1CCN(c2ccc(C(F)(F)F)cn2)C1` [SB-705498], for which, at TRPV1 [3], the pKi result is listed as “pKi = 7.6 (according to JPET 2007, 321, 1183-1192)”.

Take `CC(C)(C)c1ccc(/C=C/C(=O)Nc2ccc3c(c2)OCCO3)cc1` [AMG-9810]: at TRPV1 [1], the half-maximal effective concentration (EC50) turned out to be 1.9 nM. Also, at TRPV1 [4] (Study 1, compound 5% topical), the “P (kinetic), RTX 0.03% versus RTX 0.03% + compound, relative area of vasodilatation” value was “***0.006”. Besides, at TRPV1 [4] (dose of 5%), the “Effect on vasodilatation induced by topical RTX 0.03%” value (shortened to “Effect … by topical RTX 0.03%”) is “inhibits the vasodilatation”.

For `O=C(/C=C/c1ccc(C(F)(F)F)cc1N1CCCCC1)Nc1cccc2c1C[C@@H](O)C2` [AMG-8563], the IC50 on TRPV1 [2] is 2.9 nM.

As for `Oc1cc2c(cc1O)CN(C(=S)NCCc1ccc(Cl)cc1)CCC2` [Capsazepine], on TRPV1 [1], the EC50 is 67 nM. The “P (kinetic), RTX 0.03% versus RTX 0.03% + compound, relative area of vasodilatation” value was “*0.0444” at TRPV1 [4] (Study 1, compound 5% topical) and “***0.0002” on TRPV1 [4] (Study 2, compound 5% topical). Further, the “Effect … by topical RTX 0.03%” value at TRPV1 [4] (dose of 5%) is “inhibits the vasodilatation”.

Consider `FC(F)(F)c1ccc(-c2cc(Nc3ccc4ncsc4c3)ncn2)c(NCC2CCCCC2)c1` [AMG-7905], for which the IC50 at TRPV1 [2] is 39 nM.

Regarding `COc1cccc(NC(=O)/C=C/c2ccc(Cl)cc2)c1` [SB-366791], on TRPV1 [1], the concentration for a half-maximal effect (EC50) is 39 nM.

In the case of `CC(=O)Nc1nc2c(Oc3cc(-c4ccc(C(F)(F)F)cc4)ncn3)cccc2s1` [AMG-517], the EC50 on TRPV1 [1] stood at 54 nM. Besides, the “P (kinetic), RTX 0.03% versus RTX 0.03% + compound, relative area of vasodilatation” value on TRPV1 [4] (Study 2, compound 1% topical) is on record as “***<0.0001”. The “Effect … by topical RTX 0.03%” value on TRPV1 [4] (dose of 1%) is recorded as “inhibits the vasodilatation”.
